Test results as given in US5180711A, “Combined treatment with GnRH antagonist and GnRH to control gonadotropin levels in mammals” (Applied Research Systems ARS Holding N.V., priority 1990, dated 1993).
Where a SMILES comes first, the peptide text is derived from it. [ ]: non-standard residue; d: D form. The star is where a group is joined. dPhe(4-Cl) = N[C@H](Cc1ccc(Cl)cc1)C(=O)O; d2Nal = N[C@H](Cc1ccc2ccccc2c1)C(=O)O; Lys(iPr) = CC(C)NCCCC[C@H](N)C(=O)O; d3Pal = N[C@H](Cc1cccnc1)C(=O)O; Nicotinoyl = O=C(c1cccnc1)*

Legend:
[1] = Antide concentrations in daily blood samples (Example 2); type: in vivo, cynomolgus monkeys; conditions: regimen A: four daily injections of 10 mg/kg sc; test period >40 days
Procedure: (§1) Normally cycling cynomolgus monkeys were studied in one of two regimens. Regimen A comprised a series of initial large loading doses of Antide (10 mg/kg, sc), with no further Antide administration. […] In each regimen GnRH replacement was initiated 4 days after the first Antide injection at a rate of 5 μg/pulse, with one 1 min pulse/hour. The amplitude was subsequently raised to 10 μg/pulse after approximately 21 days. Daily blood samples were drawn for later determination of estradiol, progesterone and Antide concentrations.

[2] = test system: tonic gonadotropin (FSH/LH) levels; conditions: ovariectomized monkeys treated with Antide; cited from earlier work
[3] = test system: ovulation; estradiol and progesterone concentrations; test: Ovulation induction by pulsatile GnRH replacement during Antide suppression of endogenous cycles (Example 2); type: in vivo, cynomolgus monkeys
Procedure: A second experiment was performed to establish that pulsatile GnRH replacement therapy would induce ovulation in the face of antagonist-induced suppression of endogenous cycles.
as §1

[4] = test system: endogenous gonadotropin secretion (LH, FSH); test: Inhibition of endogenous gonadotropin secretion by Antide and response to pulsatile GnRH replacement in ovariectomized monkeys (Example 1); type: in vivo, cynomolgus monkeys; conditions: Antide-suppressed monkeys; GnRH 5 μg/pulse, 1 pulse/hour, from day 17; day after initiation
Procedure: Three long-term ovariectomized cynomolgus monkeys fitted with indwelling jugular vein canulae were utilized for this study. Daily blood samples were drawn under ketamine-induced anesthesia (10 mg/kg, I.M.), for 90 days. On study days 11-16 Antide (3 mg/kg, in propylene/glycol:water, 1:1) was administered via subcutaneous injection. GnRH replacement therapy (5 μg/pulse, 1 pulse/hour given over 1 min, via a Pulsamat infusion pump) was initiated on day 17 and continued for one week then withheld for one week, then reinitiated for one week in a 7 day on, 7 day off regimen for a total of four exposures.

concentration of Antide, always remaining above, throughout test period [1]	Molecule	gonadotropin response to a large i.v. bolus of GnRH [2]	E2 response, ovulation and luteal P4 ([3]; regimen A, GnRH restarted at 10 μg/pulse)	E2 response to initial pulsatile GnRH replacement ([3]; regimen B, GnRH 5 μg/pulse)	E2 response, ovulation and luteal P4 ([3]; regimen B, GnRH increased to 10 μg/pulse)	gonadotropin concentrations during GnRH replacement therapy [4]
above 15 ng/ml	CC(=O)N[C@H](Cc1ccc2ccccc2c1)C(=O)N[C@H](Cc1ccc(Cl)cc1)C(=O)N[C@H](Cc1cccnc1)C(=O)N[C@@H](CO)C(=O)N[C@@H](CCCCNC(=O)c1cccnc1)C(=O)N[C@H](CCCCNC(=O)c1cccnc1)C(=O)N[C@@H](CC(C)C)C(=O)N[C@@H](CCCCNC(C)C)C(=O)N1CCC[C@H]1C(=O)N[C@H](C)C(N)=O [Antide, N--Ac--D--2--Nal--D--pClPhe--D--3---Pal--Ser--NicLys--D--NicLys--Leu--ILys--Pro--D--Ala--NH2] (Ac-[d2Nal][dPhe(4-Cl)][d3Pal]SK(Nicotinoyl)[dK](Nicotinoyl)L[Lys(iPr)]P[dA]-NH2)					
	gonadotropin releasing hormone (QHWSYGLRPG; Gonadoliberin-1; UniProt P01148 24-33, looked up) [GnRH]	transient increase in gonadotropin levels which subsequently fell back to the inhibited state	rapid and sustained elevation of E2 concentrations culminating in ovulation and normal luteal phase P4 (progesterone) concentrations	elevations of E2 to those characteristic of the late follicular phase	rapid rise in E2 concentrations to normal preovulatory levels culminating in ovulation with subsequent normal luteal P4 production	greater than 100 ng/ml
